Data on 4 compounds can be found in patent US9120762B2, “Salts of bicyclo-substituted pyrazolon azo derivatives, preparation method and use thereof” (Jiangsu Hengrui Medicine Co., Ltd., priority 2009, dated 2015).

One series deals with T1, human TPOR (Homo sapiens, UniProt P40238).
T1 construct: host or cells: BaF3 (murine pro-B cells), stably transfected, G418-selected
T1 sequence (P40238 26-635): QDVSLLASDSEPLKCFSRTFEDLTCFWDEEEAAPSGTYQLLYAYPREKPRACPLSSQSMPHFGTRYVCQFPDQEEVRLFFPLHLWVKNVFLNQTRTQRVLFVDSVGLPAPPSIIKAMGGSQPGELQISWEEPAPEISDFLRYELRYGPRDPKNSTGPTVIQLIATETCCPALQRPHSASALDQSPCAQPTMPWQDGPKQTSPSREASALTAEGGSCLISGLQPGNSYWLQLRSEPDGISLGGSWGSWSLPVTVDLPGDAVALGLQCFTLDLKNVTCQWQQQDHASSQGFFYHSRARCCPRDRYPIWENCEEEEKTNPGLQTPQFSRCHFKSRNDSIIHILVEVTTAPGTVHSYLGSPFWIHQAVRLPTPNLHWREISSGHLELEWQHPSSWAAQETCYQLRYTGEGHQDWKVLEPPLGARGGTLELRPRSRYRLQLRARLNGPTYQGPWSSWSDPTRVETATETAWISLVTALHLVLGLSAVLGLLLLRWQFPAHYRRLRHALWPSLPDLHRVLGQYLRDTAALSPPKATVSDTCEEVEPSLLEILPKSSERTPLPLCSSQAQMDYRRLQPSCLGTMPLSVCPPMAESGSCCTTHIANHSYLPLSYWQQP
The series can be described thus: Proliferation effect on BAF3-TPOR cell (CCK-8). The series is classed as cell-based. Conditions: rate relative to rhTPO positive control. How it is done: (1) Plasmid constructs: based on the TPO receptor (TPOR) sequence information from Entrez (Gene ID: 4325, Refseq: NM_005373), dual-site mutation was performed on EX-B0010-M02 plasmid by using QuikChange® Multi Site Directed Mutagenesis Kit (Stratagene). The sequence of primers containing multi-sites mutation was designed as follows: […]
The E. coli DH5α competent cells were transformed with mutated plasmid, and positive colonies were picked up through ampicillin selection. The mutation result was confirmed by sequence analysis.
(2) BAF3-TPOR stable transfected cell line: the following method was used to construct the BaF3 cell which stably over-expressed functional human TPOR. The successfully mutated EX-B0010-M02 plasmid ([…]) which expressed human TPOR and screening gene neomycin was transfected into wild-type BaF3 cells (1×10^7) by electroporation at 250V for 18 ms using an electric pulse generator (Electro Square Porator ECM830, BTX Division of Genetronic, Inc. US). The stable transfected cells BAF3-TPOR were selected with G418 (Gibco, US), then incubated in RPMI1640 medium plus 10% FBS (Gibco, US), […] G418, 5 ng/mL, rmIL-3 (Chemicon, US).
(1) Washing cells by centrifugation: a suitable amount of cell suspension was centrifuged at 1000 rpm for 5 minutes, and the supernatant was discarded. 10 mL of cell culture media without IL-3 was added. Then the resulting cell suspension was centrifuged at 1000 rpm for 5 minutes, and the supernatant was discarded.
(2) 1 mL of cell culture media without IL-3 was added to beat upon them to equality, and the number of a suitable amount of cell suspension was counted after dilution.
(3) According to the result of the cell counting, a cell suspension in a concentration of 100,000 cell/mL was prepared.
(4) 100 μL of cell suspension was transferred to each well of 96-well culture plate, and there were 3 parallel wells, that is, there were a blank control group (B), a negative control group (N), a positive control group of TPO (P) and a test compound group (S).
(5) The test compound was dissolved in DMSO to prepare a 10 mM stock solution, and then the solution was diluted with RPMI 1640 medium into a series of test samples at different concentration: 30 μM, 10 μM, 3 μM, 1 μM, 0.3 μM, 0.1 μM, 0.03 μM, 0.01 μM, 0.003 μM, 0.001 μM.
(6) 10 μL of test compound solution was transferred to each well respectively; 1 μL of rhTPO (10 ng/mL) was added to positive control well.
(7) The plates were incubated in an incubator at 5% CO2 and 37° C. for 24 hours.
(8) After incubation, 10 μL of CCK-8 solution was added to each well and the plates were incubated in the incubator for another 24 hours.
(9) OD value was detected at 450 nm by VICTORS (Perkin Elmer 1420-120) plate reader.
(1) The proliferation rate was calculated as follows: Rate=[(S−B)/(P−B)]*100%
S: OD value of wells which contain test compound.
B: OD value of blank control wells
P: OD value of positive control wells
(2) The EC50 value was calculated by Origin 7.0 software.

Series [1] is described as follows: Hygroscopicity assay, standing 48 hours at 25° C., humidity 79%. The series is classed as physicochemical. The settings on record: 48 hours, 25° C., humidity 79%. As to the method: The hygroscopicity test of the compounds of the present disclosure after standing for 48 hours
1. The arid glass weighing bottle with a tap (external diameter is 50 mm, the height is 15 mm) was placed at 25° C.±1° C. suitably in a thermostatic drier (saturated ammonium sulfate solution was laid in the lower part, humidity was 79%) the day before the assay, precise weight was measured as (m1);
2. The above weighing bottle was covered with the compounds of the invention (about 1 g), and the thickness of the compounds were generally 1 mm, precise weight was measured as (m2);
3. The mouth of the weighing bottle was kept open and placed with the tap in the above conditions with constant temperature and humidity for 48 hours;
4. Put the tap back on the bottle, precise weight was measured as (m3)
The degree of hygroscopicity was defined as follows: […]
Deliquesce: turning into liquid by absorbing enough moisture.
High hygroscopicity: the percentage of hygroscopicity weight gain is not less than 15%.
Hygroscopicity: the percentage of hygroscopicity weight gain is less than 15%, but not less than 2%.
Sparing hygroscopicity: the percentage of hygroscopicity weight gain is less than 2%, but not less than 0.2%.
No hygroscopicity or almost no hygroscopicity: the percentage of hygroscopicity weight gain is less than 0.2%.

A short description of series [2]: Pharmacokinetics assay in rats. The series is classed as in vivo, SD rats. Conditions: SD rats, intragastric, 50 mg/Kg (as free acid); 50 mg/kg. A digest of the protocol: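 SD rats, half male and half female, dosed intragastrically with compound suspended at 5 mg/mL (as free acid) in 1% sodium carboxymethyl cellulose; fed 2 h post-dose. Plasma concentrations over time were measured by HPLC-UV. Parameters came from a compartmental fit, with Cmax and tmax as observed values.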

Series [3] can be described thus: Solubility assay in water, 0.1% hydrochloric acid and methanol. The series is classed as physicochemical. As to the method:
The solubility was characterized by:
The term “very soluble” refers to that 1 g (mL) of solute can be dissolved in less than 1 mL of solvent;
The term “freely soluble” refers to that 1 g (mL) of solute can be dissolved in from 1 mL to 10 mL, not including 10 mL of solvent;
The term “soluble” refers to that 1 g (mL) of solute can be dissolved in from 10 mL to 30 mL, not including 30 mL of solvent;
The term “sparingly soluble” refers to that 1g (mL) of solute can be dissolved in from 30 mL to 100 mL, not including 100 mL of solvent;
The term “slightly soluble” refers to that 1g (mL) of solute can be dissolved in from 100 mL to 1000 mL, not including 1000 mL of solvent;
The term “very slightly soluble” refers to that 1g (mL) of solute can be dissolved in from 1000 mL to 10000 mL, not including 10000 mL of solvent;
The term “practically insoluble or insoluble” refers to that 1g (mL) of solute cannot be dissolved completely in 10000 mL of solvent.

Setting [4] is: 0.1% hydrochloric acid, simulated gastric fluid, 0.1% hydrochloric acid, read-out: solubility.

Values after ≈ are worked out from the molar mass of the structure shown. Read-outs that look alike come from different tables or passages of the source. Where only a bound is given, the exact number is not on record here.

The EC50 is the midpoint of the concentration-response curve. Broadly, the solubility is the dissolved amount per volume that the medium holds.

With `CC1=NN(c2ccc3c(c2)CCCC3)C(=O)/C1=N\Nc1cccc(-c2ccc(C(=O)O)o2)c1O` [Example 23, (Z)-5-(2-hydroxy-3-{N′-[3-methyl-5-oxo-1-(5,6,7,8-tetrahydro-naphthalen-2-yl)-1,5-dihydro-pyrazol-4-ylidene]-hydrazino}-phenyl)-furan-2-carboxylic acid choline], on human TPOR, the EC50 came out at 43 nM. Besides, in series [1], the “Percentage of weight gain” value is given as 8.48% and the hygroscopicity result was “Hygroscopicity (the percentage of hygroscopicity weight gain is less than 15%, but not less than 2%)”. Besides, in series [2], the “Area Under Curve AUC” value was found to be 123 ± 89.5 µg·h/mL, the “Clearance CL/F” value came out at 8.78 ± 4 mL/min/kg, the “Half-Life t½” value amounted to 7.61 ± 1.34 h and the “Plasma Conc. Cmax” value turned out to be 17200 ± 12300 ng/mL. Moreover, the “Time to peak Tmax” value in series [2] stood at 3.25 ± 3.18 h.

For `CC1=NN(c2ccc3c(c2)CCC3)C(=O)/C1=N\Nc1cccc(-c2cccc(C(=O)O)c2)c1O` [Example 1j, (Z)-2′-hydroxy-3′-[N′-(1-indan-5-yl-3-methyl-5-carbonyl-1,5-dihydro-pyrazol-4-ylidene)-hydrazino]-biphenyl-3-carboxylic acid], the EC50 at human TPOR was 200 nM. In addition, in series [2], the “Area Under Curve AUC” value stood at 131 ± 47 µg·h/mL, the “Clearance CL/F” value amounted to 0.817 ± 0.583 mL/min/kg, the “Half-Life t½” value was 4.21 ± 1.86 h and the “Mean Residence Time MRT” value was determined as 3.89 ± 1.78 h. In addition, in series [2], the “Plasma Conc. Cmax” value amounted to 29050 ± 11440 ng/mL and the “Time to peak Tmax” value is listed as 4.00 ± 1.41 h. The solubility in series [3] (setting [4]) was < 1 µg/mL. Besides, the solubility in series [3] (methanol) is <1 µg/mL. Besides, the solubility in series [3] (water) is <1 µg/mL.

In the case of `CC1=NN(c2ccc3c(c2)CCC3)C(=O)/C1=N\Nc1cccc(-c2csc(C(=O)O)c2)c1O` [Example 19d, (Z)-4-{2-hydroxy-3-[N′-(1-indan-5-yl-3-methyl-5-oxo-1,5-dihydro-pyrazol-4-ylidene)-hydrazino]-phenyl}-thiophene-2-carboxylic acid], on human TPOR, the concentration giving a half-maximal response (EC50) is 43 nM. Besides, in series [2], the “Area Under Curve AUC” value is 36.1 ± 36.4 µg·h/mL, the “Clearance CL/F” value is 24 ± 13.8 mL/min/kg, the “Half-Life t½” value is 1.84 ± 1.05 h and the “Mean Residence Time MRT” value is listed as 3.01 ± 1.99 h. Also, in series [2], the “Plasma Conc. Cmax” value came to 7910 ± 6840 ng/mL and the “Time to peak Tmax” value is on record as 2.50 ± 0.58 h. Also, the solubility in series [3] (setting [4]) is < 1 µg/mL. Moreover, the solubility in series [3] (methanol) is <1 µg/mL. For the same compound, in series [3] (water), the solubility is <1 µg/mL.

As for `CC1=NN(c2ccc3c(c2)C(C)(C)CC3)C(=O)/C1=N\Nc1cccc(-c2ccc(C(=O)O)o2)c1O` [Example 6, (Z)-5-(3-{N′-[1-(3,3-dimethyl-indan-5-yl)-3-methyl-5-oxo-1,5-dihydro-pyrazol-4-ylidene]-hydrazino}-2-hydroxy-phenyl)-furan-2-carboxylic acid bis-(piperazine)], the EC50 on human TPOR amounted to 36 nM. In series [2], the “Area Under Curve AUC” value was 175 ± 41 µg·h/mL, the “Clearance CL/F” value was found to be 5 ± 1.4 mL/min/kg, the “Half-Life t½” value worked out at 45.0 ± 70.3 h and the “Mean Residence Time MRT” value turned out to be 60.4 ± 90.2 h. Moreover, in series [2], the “Plasma Conc. Cmax” value was 13000 ± 6500 ng/mL and the “Time to peak Tmax” value amounted to 2.5 ± 1.0 h. Also, the solubility in series [3] (0.1% hydrochloric acid) is <1 µg/mL. In addition, the solubility in series [3] (methanol) was 3009 µg/mL (≈ 6370 µM). The compound also gave a solubility in series [3] (water) of 1 µg/mL (≈ 2.12 µM).
